The source of these data is ChEMBL document CHEMBL5727241, “Benzazepine dicarboxamide compounds with tertiary amide function” (2019).

Experiment [1] concerns the target T1, Toll-like receptor 7 (Homo sapiens, UniProt Q9NYK1).
T1 sequence (Q9NYK1 whole entry): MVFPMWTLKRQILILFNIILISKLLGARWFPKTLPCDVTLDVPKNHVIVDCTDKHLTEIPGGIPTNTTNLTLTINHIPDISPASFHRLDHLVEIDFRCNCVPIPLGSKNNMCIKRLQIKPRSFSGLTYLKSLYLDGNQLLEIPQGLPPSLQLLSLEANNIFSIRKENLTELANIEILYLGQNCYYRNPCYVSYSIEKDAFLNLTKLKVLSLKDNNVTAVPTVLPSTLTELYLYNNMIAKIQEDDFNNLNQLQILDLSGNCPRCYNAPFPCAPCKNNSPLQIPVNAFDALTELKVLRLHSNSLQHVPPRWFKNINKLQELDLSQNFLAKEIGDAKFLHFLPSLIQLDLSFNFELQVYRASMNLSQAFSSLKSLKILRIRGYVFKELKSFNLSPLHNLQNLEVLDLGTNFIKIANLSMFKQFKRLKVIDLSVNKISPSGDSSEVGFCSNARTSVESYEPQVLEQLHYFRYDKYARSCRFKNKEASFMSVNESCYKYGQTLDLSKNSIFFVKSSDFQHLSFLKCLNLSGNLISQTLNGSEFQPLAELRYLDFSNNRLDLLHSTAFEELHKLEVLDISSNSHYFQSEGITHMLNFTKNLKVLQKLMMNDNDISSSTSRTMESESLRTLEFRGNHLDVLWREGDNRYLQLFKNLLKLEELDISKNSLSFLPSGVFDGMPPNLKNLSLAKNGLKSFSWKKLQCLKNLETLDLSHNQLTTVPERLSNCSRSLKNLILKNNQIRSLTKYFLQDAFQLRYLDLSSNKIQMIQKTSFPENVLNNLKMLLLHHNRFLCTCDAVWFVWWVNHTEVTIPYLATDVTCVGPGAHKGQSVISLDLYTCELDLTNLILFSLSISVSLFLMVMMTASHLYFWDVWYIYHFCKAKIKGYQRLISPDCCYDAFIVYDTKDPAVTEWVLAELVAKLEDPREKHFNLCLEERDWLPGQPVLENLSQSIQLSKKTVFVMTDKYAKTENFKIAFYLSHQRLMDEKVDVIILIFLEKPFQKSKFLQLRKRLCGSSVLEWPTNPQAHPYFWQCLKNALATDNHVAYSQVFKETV
Briefly: (§1) Pharmacological Assay: For TLR8 and TLR7 activity testing, HEK-Blue human TLR8 or TLR7 cells (Invivogen, San Diego, Calif., USA) are used, respectively. These cells are designed for studying the stimulation of human TLR8 or TLR7 by monitoring the activation of NF-κB. A SEAP (secreted embryonic alkaline phosphatase) reporter gene is placed under the control of the IFN-b minimal promoter fused to five NF-κB and AP-1-binding sites. Therefore the reporter expression is regulated by the NF-κB promoter upon stimulation of human TLR8 or TLR7 for 20 hours. The cell culture supernatant SEAP reporter activity was determined using Quanti Blue kit (Invivogen, San Diego, Ca, USA) at a wavelength of 640 nm, a detection medium that turns purple/blue in the presence of alkaline phosphatase.

The target of experiment [2] is T2, Toll-like receptor 8 (Homo sapiens, UniProt Q9NR97).
T2 sequence (Q9NR97 whole entry): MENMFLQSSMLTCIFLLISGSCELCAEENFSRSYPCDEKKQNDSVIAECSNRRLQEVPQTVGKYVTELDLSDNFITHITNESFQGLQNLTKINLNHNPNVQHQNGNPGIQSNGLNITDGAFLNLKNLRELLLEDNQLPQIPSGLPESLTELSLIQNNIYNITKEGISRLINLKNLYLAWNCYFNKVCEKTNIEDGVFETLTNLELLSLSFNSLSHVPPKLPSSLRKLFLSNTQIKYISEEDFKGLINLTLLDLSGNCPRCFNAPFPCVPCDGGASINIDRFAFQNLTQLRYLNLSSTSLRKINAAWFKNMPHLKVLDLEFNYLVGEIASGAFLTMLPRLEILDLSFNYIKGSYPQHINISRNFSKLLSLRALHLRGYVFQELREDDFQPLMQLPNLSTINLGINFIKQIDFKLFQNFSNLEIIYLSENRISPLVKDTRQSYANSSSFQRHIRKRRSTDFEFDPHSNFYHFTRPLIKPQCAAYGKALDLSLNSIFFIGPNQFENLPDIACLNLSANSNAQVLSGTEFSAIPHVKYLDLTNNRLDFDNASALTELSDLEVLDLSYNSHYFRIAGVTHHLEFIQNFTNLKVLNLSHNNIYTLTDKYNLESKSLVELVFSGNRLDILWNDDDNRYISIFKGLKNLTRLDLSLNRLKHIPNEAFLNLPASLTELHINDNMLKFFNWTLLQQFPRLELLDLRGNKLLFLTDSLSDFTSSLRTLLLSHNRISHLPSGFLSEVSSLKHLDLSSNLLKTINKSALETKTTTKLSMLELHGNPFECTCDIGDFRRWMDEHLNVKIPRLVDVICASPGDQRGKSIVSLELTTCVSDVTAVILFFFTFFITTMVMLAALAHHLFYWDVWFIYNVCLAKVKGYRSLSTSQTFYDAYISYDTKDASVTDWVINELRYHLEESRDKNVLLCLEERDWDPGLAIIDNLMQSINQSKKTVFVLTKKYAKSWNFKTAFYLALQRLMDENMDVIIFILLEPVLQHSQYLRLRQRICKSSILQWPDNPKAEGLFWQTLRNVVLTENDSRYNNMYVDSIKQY
The description is as §1.

As a reminder, the EC50 is the concentration that produces a half-maximal response. Consider `CCCN(CCC)C(=O)C1=Cc2ccc(C(=O)N3CC(OCc4ccccc4)C3)cc2N=C(N)C1`, for which the EC50 in experiment [1] amounted to 15 µM; in experiment [2] it was 4 nM.
